The record followed here is patent US10988478B1, “Pyrazolo[1,5a]pyrimidine derivatives as IRAK4 modulators” (Genentech, Inc., priority 2015, dated 2021).

For this assay, the target named is human IRAK4 (Homo sapiens (Human), UniProt Q9NWZ3). The assay is described as follows: IRAK4 kinase inhibition, Transcreener fluorescence polarization ADP assay. The assay is classed as biochemical. The note with it: recombinant full-length His6-IRAK4; 125 uM ATP; 90 min; Ki computed using ATP Km 642 uM. Here is the method: Compounds were assayed for inhibition of human IRAK4 and IRAK1 catalytic activity using recombinant enzyme produced from insect cells. Full-length IRAK4 protein, carrying an N-terminal His6-Tag, was obtained from Life Technologies (Carlsbad, Calif., USA). The IRAK1 construct was produced internally and was comprised of IRAK1 residues Arg194 to Ser712, preceded by an NH2-terminal His6 tag and the coding sequence for glutathione-S-transferase.
Chain of human IRAK4 (Q9NWZ3 whole entry, the tested form may be a part): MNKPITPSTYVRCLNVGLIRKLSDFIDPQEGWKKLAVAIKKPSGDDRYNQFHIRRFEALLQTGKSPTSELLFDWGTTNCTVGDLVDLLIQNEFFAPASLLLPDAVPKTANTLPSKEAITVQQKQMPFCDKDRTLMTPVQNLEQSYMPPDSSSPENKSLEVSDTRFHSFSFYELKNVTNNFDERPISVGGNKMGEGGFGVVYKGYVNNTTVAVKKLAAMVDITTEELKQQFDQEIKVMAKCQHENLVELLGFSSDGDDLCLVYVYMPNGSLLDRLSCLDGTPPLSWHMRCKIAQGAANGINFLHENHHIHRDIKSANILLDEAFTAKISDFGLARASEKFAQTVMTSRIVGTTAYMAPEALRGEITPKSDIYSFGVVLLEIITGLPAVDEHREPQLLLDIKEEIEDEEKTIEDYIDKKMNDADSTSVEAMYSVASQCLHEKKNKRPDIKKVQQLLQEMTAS
On the technique in general: In fluorescence polarisation assays a small probe gives low polarisation when free and higher when bound to something large.
As to `CSCC[C@@]1(C)Cc2cc(NC(=O)c3cnn4cccnc34)c(N3CCOCC3)cc2O1` [Example 444, (R)—N-(2-methyl-2-(2-(methylthio)ethyl)-6-morpholino-2,3-dihydrobenzofuran-5-yl)pyrazolo[1,5-a]pyrimidine-3-carboxamide], the Ki was determined as 2.8 nM. With `CC1(C)Cc2cc(NC(=O)c3cnn4cccnc34)c(O[C@@H]3CCN(CC(N)=O)C3)cc2O1` [Example 445, (R)—N-(6-((1-(2-amino-2-oxoethyl)pyrrolidin-3-yl)oxy)-2,2-dimethyl-2,3-dihydrobenzofuran-5-yl)pyrazolo[1,5-a]pyrimidine-3-carboxamide] the figure was 3.3 nM. The figure for `CC1(C)Cc2cc(NC(=O)c3cnn4cccnc34)c(OC3CN(CCO)C3)cc2O1` [Example 446, N-(6-((1-(2-hydroxyethyl)azetidin-3-yl)oxy)-2,2-dimethyl-2,3-dihydrobenzofuran-5-yl)pyrazolo[1,5-a]pyrimidine-3-carboxamide] is 52 nM; for `CC1(C)Cc2cc(NC(=O)c3cnn4cccnc34)c(O[C@H]3CCN(CC(N)=O)C3)cc2O1` [Example 447, (S)-N-(6-((1-(2-amino-2-oxoethyl)pyrrolidin-3-yl)oxy)-2,2-dimethyl-2,3-dihydrobenzofuran-5-yl)pyrazolo[1,5-a]pyrimidine-3-carboxamide] it is 6 nM; for `CCn1cc(COc2cc3c(cc2NC(=O)c2cnn4cccnc24)CC(C)(C)O3)cn1` [Example 448, N-(6-((1-ethyl-1H-pyrazol-4-yl)methoxy)-2,2-dimethyl-2,3-dihydrobenzofuran-5-yl)pyrazolo[1,5-a]pyrimidine-3-carboxamide] it is 24 nM. The figure for `N[C@H]1CO[C@@H](CN2Cc3cc(NC(=O)c4cnn5cccnc45)c(N4CCOCC4)cc3C2=O)OC1` [Example 449, N-(2-(((2R,5R)-5-amino-1,3-dioxan-2-yl)methyl)-6-morpholino-1-oxoisoindolin-5-yl)pyrazolo[1,5-a]pyrimidine-3-carboxamide] is 80 nM. Consider `COc1cc2c(cc1NC(=O)c1cnn3ccc(N[C@@H]4CCCC[C@@H]4N)nc13)CC(C)(C)O2` [Example 451, 5-[[(1R,2S)-2-aminocyclohexyl]amino]-N-(6-methoxy-2,2-dimethyl-3H-benzofuran-5-yl)pyrazolo[1,5-a]pyrimidine-3-carboxamide], for which the Ki amounted to 4.7 nM.

For the molecule `CC1(C)Cc2cc(NC(=O)c3cnn4cccnc34)c(C(N)=O)cc2O1` [Example 452, N-(6-carbamoyl-2,2-dimethyl-3H-benzofuran-5-yl)pyrazolo[1,5-a]pyrimidine-3-carboxamide], the Ki worked out at 150 nM. The figure for `CCN1CCN(c2cc3c(cc2NC(=O)c2cnn4cccnc24)CC(C)(C)O3)CC1` [Example 453, N-(6-(4-ethylpiperazin-1-yl)-2,2-dimethyl-2,3-dihydrobenzofuran-5-yl)pyrazolo[1,5-a]pyrimidine-3-carboxamide] is 44 nM; for `CSCCN1CCN(c2cc3c(cc2NC(=O)c2cnn4cccnc24)CC(C)(C)O3)CC1` [Example 454, N-(2,2-dimethyl-6-(4-(2-(methylthio)ethyl)piperazin-1-yl)-2,3-dihydrobenzofuran-5-yl)pyrazolo[1,5-a]pyrimidine-3-carboxamide] it is 8.8 nM. The figure for `CC1(C)Cc2cc(NC(=O)c3cnn4cccnc34)c(N3CCN(CCC(N)=O)CC3)cc2O1` [Example 455, N-(6-(4-(3-amino-3-oxopropyl)piperazin-1-yl)-2,2-dimethyl-2,3-dihydrobenzofuran-5-yl)pyrazolo[1,5-a]pyrimidine-3-carboxamide] is 5.8 nM; for `CC1(C)Cc2cc(NC(=O)c3cnn4cccnc34)c(N3CCN(CC#N)CC3)cc2O1` [Example 456, N-(6-(4-(cyanomethyl)piperazin-1-yl)-2,2-dimethyl-2,3-dihydrobenzofuran-5-yl)pyrazolo[1,5-a]pyrimidine-3-carboxamide] it is 2.6 nM; for `CC1(C)Cc2cc(NC(=O)c3cnn4cccnc34)c(N3CCN(CCC#N)CC3)cc2O1` [Example 457, N-(6-(4-(2-cyanoethyl)piperazin-1-yl)-2,2-dimethyl-2,3-dihydrobenzofuran-5-yl)pyrazolo[1,5-a]pyrimidine-3-carboxamide] it is 4.4 nM. With `CC1(C)Cc2cc(NC(=O)c3cnn4cccnc34)c(N3CCN(CC4CC4)CC3)cc2O1` [Example 458, N-(6-(4-(cyclopropylmethyl)piperazin-1-yl)-2,2-dimethyl-2,3-dihydrobenzofuran-5-yl)pyrazolo[1,5-a]pyrimidine-3-carboxamide] the figure was 37 nM. In the case of `Cc1noc(CN2CCN(c3cc4c(cc3NC(=O)c3cnn5cccnc35)CC(C)(C)O4)CC2)n1` [Example 459, N-(2,2-dimethyl-6-(4-((3-methyl-1,2,4-oxadiazol-5-yl)methyl)piperazin-1-yl)-2,3-dihydrobenzofuran-5-yl)pyrazolo[1,5-a]pyrimidine-3-carboxamide], the Ki is 16 nM. With `Cn1cc(CN2CCN(c3cc4c(cc3NC(=O)c3cnn5cccnc35)CC(C)(C)O4)CC2)cn1` [Example 460, N-(2,2-dimethyl-6-(4-((1-methyl-1H-pyrazol-4-yl)methyl)piperazin-1-yl)-2,3-dihydrobenzofuran-5-yl)pyrazolo[1,5-a]pyrimidine-3-carboxamide] the figure was 5.9 nM. With `Cc1nc(CN2CCN(c3cc4c(cc3NC(=O)c3cnn5cccnc35)CC(C)(C)O4)CC2)no1` [Example 461, N-(2,2-dimethyl-6-(4-((5-methyl-1,2,4-oxadiazol-3-yl)methyl)piperazin-1-yl)-2,3-dihydrobenzofuran-5-yl)pyrazolo[1,5-a]pyrimidine-3-carboxamide], the Ki was 29 nM. The figure for `CC1(C)Cc2cc(NC(=O)c3cnn4cccnc34)c(N3CCN(CCn4cccn4)CC3)cc2O1` [Example 462, N-(6-(4-(2-(1H-pyrazol-1-yl)ethyl)piperazin-1-yl)-2,2-dimethyl-2,3-dihydrobenzofuran-5-yl)pyrazolo[1,5-a]pyrimidine-3-carboxamide] is 6.5 nM; for `Cc1nnc(CN2CCN(c3cc4c(cc3NC(=O)c3cnn5cccnc35)CC(C)(C)O4)CC2)o1` [Example 463, N-(2,2-dimethyl-6-(4-((5-methyl-1,3,4-oxadiazol-2-yl)methyl)piperazin-1-yl)-2,3-dihydrobenzofuran-5-yl)pyrazolo[1,5-a]pyrimidine-3-carboxamide] it is 25 nM. Turning to `CC1(C)Cc2cc(NC(=O)c3cnn4cccnc34)c(N3CCN(CC4CCOCC4)CC3)cc2O1` [Example 464, N-(2,2-dimethyl-6-(4-((tetrahydro-2H-pyran-4-yl)methyl)piperazin-1-yl)-2,3-dihydrobenzofuran-5-yl)pyrazolo[1,5-a]pyrimidine-3-carboxamide], the Ki came out at 67 nM. The figure for `COCCCN1CCN(c2cc3c(cc2NC(=O)c2cnn4cccnc24)CC(C)(C)O3)CC1` [Example 465, N-(6-(4-(3-methoxypropyl)piperazin-1-yl)-2,2-dimethyl-2,3-dihydrobenzofuran-5-yl)pyrazolo[1,5-a]pyrimidine-3-carboxamide] is 38 nM; for `CC1(C)Cc2cc(NC(=O)c3cnn4cccnc34)c(N3CCN(CC4CCC4)CC3)cc2O1` [Example 466, N-(6-(4-(cyclobutylmethyl)piperazin-1-yl)-2,2-dimethyl-2,3-dihydrobenzofuran-5-yl)pyrazolo[1,5-a]pyrimidine-3-carboxamide] it is 99 nM; for `CC1(C)Cc2cc(NC(=O)c3cnn4cccnc34)c(N3CCN(C4CCNC4=O)CC3)cc2O1` (centres unmarked) [Example 467, N-(2,2-dimethyl-6-(4-(2-oxopyrrolidin-3-yl)piperazin-1-yl)-2,3-dihydrobenzofuran-5-yl)pyrazolo[1,5-a]pyrimidine-3-carboxamide] it is 13 nM. With `CC1(C)Cc2cc(NC(=O)c3cnn4cccnc34)c(N3CCN(CC4CCC(=O)N4)CC3)cc2O1` (centres unmarked) [Example 468, N-(2,2-dimethyl-6-(4-((5-oxopyrrolidin-2-yl)methyl)piperazin-1-yl)-2,3-dihydrobenzofuran-5-yl)pyrazolo[1,5-a]pyrimidine-3-carboxamide] the figure was 5.1 nM; with `CC1(C)Cc2cc(NC(=O)c3cnn4cccnc34)c(N3CCN(CC(O)CO)CC3)cc2O1` (centres unmarked) [Example 469, N-(6-(4-(2,3-dihydroxypropyl)piperazin-1-yl)-2,2-dimethyl-2,3-dihydrobenzofuran-5-yl)pyrazolo[1,5-a]pyrimidine-3-carboxamide], 8.8 nM; with `CC1(C)Cc2cc(NC(=O)c3cnn4cccnc34)c(N3CCN(CCN4CCCC4=O)CC3)cc2O1` [Example 470, N-(2,2-dimethyl-6-(4-(2-(2-oxopyrrolidin-1-yl)ethyl)piperazin-1-yl)-2,3-dihydrobenzofuran-5-yl)pyrazolo[1,5-a]pyrimidine-3-carboxamide], 12 nM. With `CC1(C)Cc2cc(NC(=O)c3cnn4cc(CO)cnc34)c(N3CCOCC3)cc2O1` [Example 471, N-(2,2-dimethyl-6-morpholino-3H-benzofuran-5-yl)-6-(hydroxymethyl)pyrazolo[1,5-a]pyrimidine-3-carboxamide] the figure was 6.5 nM; with `C[C@H](C(N)=O)N1CCN(c2cc3c(cc2NC(=O)c2cnn4cccnc24)CC(C)(C)O3)CC1` [Example 472, N-[6-[4-[(1R)-2-amino-1-methyl-2-oxo-ethyl]piperazin-1-yl]-2,2-dimethyl-3H-benzofuran-5-yl]pyrazolo[1,5-a]pyrimidine-3-carboxamide], 2.5 nM; with `C[C@@H](C(N)=O)N1CCN(c2cc3c(cc2NC(=O)c2cnn4cccnc24)CC(C)(C)O3)CC1` [Example 473, N-[6-[4-[(1S)-2-amino-1-methyl-2-oxo-ethyl]piperazin-1-yl]-2,2-dimethyl-3H-benzofuran-5-yl]pyrazolo[1,5-a]pyrimidine-3-carboxamide], 5 nM.

For orientation: Ki means a measure of affinity in units of concentration, obtained from inhibition or displacement.
